Test results taken from ChEMBL document CHEMBL1201862, “PubChem BioAssay data set” (2004).
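Compound exposure: 48 hours, 5 concentrations, 96-well plates. Here, GI50 denotes the concentration required for 50% inhibition of growth.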 The source made the active and inactive calls. Cut-off read from the data, not from the text of the source: active = GI50 up to about 1.1 µM and inactive = higher.

Tests used:
Test in all cases: growth of human tumour cells (NCI), 48 h
M14 = tested on: M14
A549 = tested on: A549
UACC-62 = tested on: UACC-62
CAKI-1 = tested on: CAKI-1
RPMI-8226 = tested on: RPMI-8226
NCI-H23 = tested on: NCI-H23
SN12C = tested on: SN12C
HOP-92 = tested on: HOP-92
SK-MEL-2 = tested on: SK-MEL-2
ACHN = tested on: ACHN
TK-10 = tested on: TK-10
SF-268 = tested on: SF-268
LOX IMVI = tested on: LOX IMVI
COLO 205 = tested on: COLO 205
A498 = tested on: A498
NCI-H226 = tested on: NCI-H226
NCI-H460 = tested on: NCI-H460
U-251 = tested on: U-251
IGROV-1 = tested on: IGROV-1
RXF 393 = tested on: RXF 393

Compound | GI50 (M14) | GI50 (A549) | GI50 (UACC-62) | GI50 (CAKI-1) | GI50 (RPMI-8226) | GI50 (NCI-H23) | GI50 (SN12C) | GI50 (HOP-92) | GI50 (SK-MEL-2) | GI50 (ACHN) | GI50 (TK-10) | GI50 (SF-268) | GI50 (LOX IMVI) | GI50 (COLO 205) | GI50 (A498) | GI50 (NCI-H226) | GI50 (NCI-H460) | GI50 (U-251) | GI50 (IGROV-1) | GI50 (RXF 393)
Cc1occc1C(=S)Nc1ccc(Cl)c(C(=O)OCC(C)C)c1 | 22.8 µM (inactive) | 20.3 µM (inactive) | 12.6 µM (inactive) | 21.5 µM (inactive) | 19.4 µM (inactive) | 17.1 µM (inactive) | 16.8 µM (inactive) | 17.4 µM (inactive) | 19.5 µM (inactive) | 17.9 µM (inactive) | 17.3 µM (inactive) | 21.4 µM (inactive) | 14.9 µM (inactive) | 16.3 µM (inactive) | 15.9 µM (inactive) | 15.3 µM (inactive) | 22.3 µM (inactive) | 17.6 µM (inactive) | 18.1 µM (inactive) | 
CSc1nc2c(c(O)c(C)c(=O)n2C2OCC(OC(C)=O)C(OC(C)=O)C2OC(C)=O)c(=O)n1C (stereo not drawn) | > 100 µM (inactive) | > 100 µM (inactive) | > 100 µM (inactive) | > 100 µM (inactive) | > 100 µM (inactive) | > 100 µM (inactive) | > 100 µM (inactive) | > 100 µM (inactive) | > 100 µM (inactive) | > 100 µM (inactive) | > 100 µM (inactive) | > 100 µM (inactive) | > 100 µM (inactive) | > 100 µM (inactive) | > 100 µM (inactive) | > 100 µM (inactive) | > 100 µM (inactive) | > 100 µM (inactive) | > 100 µM (inactive) | 
CCOC(=O)c1ccc(N2C(=O)/C(=C/c3ccc(N(CCC#N)CCC#N)cc3)N=C2c2cc([N+](=O)[O-])ccc2Cl)cc1 |  | > 100 µM (inactive) | 93.3 µM (inactive) | > 100 µM (inactive) | > 100 µM (inactive) | > 100 µM (inactive) | > 100 µM (inactive) | > 100 µM (inactive) | > 100 µM (inactive) | > 100 µM (inactive) | > 100 µM (inactive) | > 100 µM (inactive) | > 100 µM (inactive) | > 100 µM (inactive) |  | > 100 µM (inactive) |  | > 100 µM (inactive) | > 100 µM (inactive) | > 100 µM (inactive)
O=C1CCC[C@]2(CCC[C@@H](O)C2)N1 | > 100 µM (inactive) | > 100 µM (inactive) |  | > 100 µM (inactive) |  |  | > 100 µM (inactive) |  | > 100 µM (inactive) | > 100 µM (inactive) | > 100 µM (inactive) | > 100 µM (inactive) | > 100 µM (inactive) | > 100 µM (inactive) |  |  | > 100 µM (inactive) |  | > 100 µM (inactive) | > 100 µM (inactive)
CCOC(=O)/C(C#N)=C\c1ccc(N(CCC(=O)O)CCC(=O)O)c(I)c1 | > 10 µM (inactive) | > 10 µM (inactive) | > 10 µM (inactive) | > 10 µM (inactive) | > 10 µM (inactive) | > 10 µM (inactive) | > 10 µM (inactive) | > 10 µM (inactive) |  | > 10 µM (inactive) | > 10 µM (inactive) | > 10 µM (inactive) | > 10 µM (inactive) | > 10 µM (inactive) |  | > 10 µM (inactive) | > 10 µM (inactive) |  | > 10 µM (inactive) | > 10 µM (inactive)
CC1=NN(C(=O)c2ccc(C)cc2)C(=O)C1/N=N/c1ccccc1C(=O)O (stereo not drawn) |  | > 100 µM (inactive) | > 100 µM (inactive) | > 100 µM (inactive) | 95.7 µM (inactive) | > 100 µM (inactive) | > 100 µM (inactive) | > 79.8 µM (inactive) | > 100 µM (inactive) |  |  | > 100 µM (inactive) | > 100 µM (inactive) | > 100 µM (inactive) |  | > 100 µM (inactive) | > 100 µM (inactive) | 85.7 µM (inactive) | > 100 µM (inactive) | > 100 µM (inactive)
CC(=O)c1ccc(Oc2ccc(/C(C)=N\N=C(N)N)cc2)cc1 | 1.5 µM (inactive) | 4.12 µM (inactive) | 2 µM (inactive) |  | 2.31 µM (inactive) | 3.75 µM (inactive) | 3.17 µM (inactive) | 2.96 µM (inactive) | 1.73 µM (inactive) | 4.73 µM (inactive) | 3.28 µM (inactive) | 3.59 µM (inactive) | 3.4 µM (inactive) | 1.67 µM (inactive) | 1.77 µM (inactive) |  | 2.77 µM (inactive) | 2.77 µM (inactive) | 5.62 µM (inactive) | 
Cc1nn(-c2ccccc2)c(S)c1C(=O)c1ccccc1 | 31.1 µM (inactive) | 32.2 µM (inactive) | 47.1 µM (inactive) | > 100 µM (inactive) | 19.1 µM (inactive) | 43.5 µM (inactive) | 21.2 µM (inactive) |  | > 100 µM (inactive) | 39.9 µM (inactive) | 31.9 µM (inactive) | 51.1 µM (inactive) | 53.6 µM (inactive) | 89.3 µM (inactive) | 21 µM (inactive) |  |  | > 100 µM (inactive) | 51.2 µM (inactive) | 3.41 µM (inactive)
CSc1cc(=O)n2c3ccccc3c3ccnc1c32 |  | > 100 µM (inactive) | 41.4 µM (inactive) |  | > 90.8 µM (inactive) | > 100 µM (inactive) | > 100 µM (inactive) | 65.3 µM (inactive) | > 100 µM (inactive) |  |  | > 49.9 µM (inactive) | > 100 µM (inactive) | > 100 µM (inactive) | > 91.4 µM (inactive) | 14.2 µM (inactive) | 57 µM (inactive) | > 55.6 µM (inactive) | 25.7 µM (inactive) | > 49.2 µM (inactive)
O=[N+]([O-])c1ccc(-c2nc(/C=N/N3CCCCC3)cs2)o1 | 37.4 µM (inactive) | 40 µM (inactive) | 31.9 µM (inactive) | > 100 µM (inactive) | 19.1 µM (inactive) | 29.2 µM (inactive) | 16.2 µM (inactive) | > 100 µM (inactive) | > 100 µM (inactive) | > 100 µM (inactive) | > 100 µM (inactive) | > 100 µM (inactive) |  | 30.2 µM (inactive) |  | > 100 µM (inactive) | 49.2 µM (inactive) | > 100 µM (inactive) | 50.8 µM (inactive) | > 100 µM (inactive)
O=C1C(Cl)N(c2ccc(Cl)cc2)C1c1c[nH]c2ccccc12 (stereo not drawn) | 18.2 µM (inactive) | 33.7 µM (inactive) | 14.9 µM (inactive) |  | 20.6 µM (inactive) | 18.4 µM (inactive) | 17.7 µM (inactive) | 22.5 µM (inactive) | 14.5 µM (inactive) |  | 19.8 µM (inactive) | 26.2 µM (inactive) |  | 22.5 µM (inactive) |  |  | 15 µM (inactive) | 13 µM (inactive) | 16.7 µM (inactive) | 20 µM (inactive)
CCOC(=O)C1=C(C)N(C2OC(COC(C)=O)C(OC(C)=O)C(OC(C)=O)C2OC(C)=O)C(=O)NC1c1ccccc1 (stereo not drawn) | > 100 µM (inactive) | > 100 µM (inactive) | > 100 µM (inactive) | 83.9 µM (inactive) | 4.84 µM (inactive) | > 100 µM (inactive) | > 100 µM (inactive) |  | > 100 µM (inactive) | > 100 µM (inactive) |  | > 100 µM (inactive) | > 100 µM (inactive) | > 100 µM (inactive) | > 100 µM (inactive) | > 100 µM (inactive) | > 100 µM (inactive) | > 100 µM (inactive) | > 100 µM (inactive) | 
O=S1(=O)Cc2ccc3c4c2-c2c(ccc5ccc(c-4c25)CS(=O)(=O)C3)C1 | > 100 µM (inactive) | > 100 µM (inactive) | 87.1 µM (inactive) |  | 20 µM (inactive) |  | 82.4 µM (inactive) | 89.9 µM (inactive) | > 100 µM (inactive) | 20.7 µM (inactive) | 79.6 µM (inactive) | 53.1 µM (inactive) | 44.6 µM (inactive) |  | > 100 µM (inactive) | > 100 µM (inactive) | 63.2 µM (inactive) | > 100 µM (inactive) | 29.8 µM (inactive) | 
COc1cc(C(O)(CC#N)c2cc3c(cc2Br)OCO3)cc(OC)c1OC (stereo not drawn) | 4.62 µM (inactive) | 22.9 µM (inactive) | 24.9 µM (inactive) | 29.1 µM (inactive) | 50.7 µM (inactive) | 51.9 µM (inactive) | > 100 µM (inactive) | > 100 µM (inactive) | 47 µM (inactive) | 92.7 µM (inactive) | 42.8 µM (inactive) | 28.2 µM (inactive) | 31.3 µM (inactive) | 37.6 µM (inactive) |  | 30.8 µM (inactive) | 18.8 µM (inactive) | 28.6 µM (inactive) | 20.9 µM (inactive) | 17.2 µM (inactive)
O=C1C(Cl)=C(Cl)C(=O)C2=C1C1c3ccccc3C2c2ccccc21 | 62.7 µM (inactive) | 99.1 µM (inactive) | 30.5 µM (inactive) |  | 25.6 µM (inactive) | 46.3 µM (inactive) | > 100 µM (inactive) | 19.5 µM (inactive) | > 100 µM (inactive) | 43.2 µM (inactive) | 83.9 µM (inactive) | > 100 µM (inactive) |  | 24.2 µM (inactive) | > 100 µM (inactive) | > 100 µM (inactive) | 32.5 µM (inactive) | 20.9 µM (inactive) | > 100 µM (inactive) | 30.8 µM (inactive)
CCCCc1ccc(N2C(=O)c3cc([N+](=O)[O-])cnc3S2(=O)=O)cc1 | > 100 µM (inactive) | > 100 µM (inactive) | > 100 µM (inactive) | > 100 µM (inactive) | > 100 µM (inactive) | > 100 µM (inactive) | > 100 µM (inactive) | 0.424 µM (active) | 23.3 µM (inactive) | > 100 µM (inactive) | > 100 µM (inactive) | 24.2 µM (inactive) | 61.7 µM (inactive) | > 100 µM (inactive) | > 100 µM (inactive) | > 100 µM (inactive) | > 100 µM (inactive) | 31.8 µM (inactive) | > 100 µM (inactive) | 
